Assay results taken from the NIST ThermoML archive (doi:10.1021/je034177v).

Assay: molar heat capacity at constant pressure; xn = mol fraction of the nth substance listed
Settings: 101 kPa, Liquid, Small sample (50 mg) DSC

ClCCCCCCl [1,5-dichloropentane] + CCCCCCCCCCCC
molar heat capacity at constant pressure [J/K/mol]
Settings | 283.15 K | 288.15 K | 293.15 K | 298.15 K | 303.15 K | 308.15 K | 313.15 K | 318.15 K | 323.15 K
x1 = 0.05237 | 359.49 | 361.46 | 363.6 | 365.89 | 368.28 | 370.79 | 373.41 | 376.07 | 378.83
x1 = 0.1014 | 351.13 | 353.16 | 355.31 | 357.53 | 359.81 | 362.28 | 364.84 | 367.48 | 370.16
x1 = 0.2008 | 334.84 | 336.79 | 338.81 | 340.93 | 343.08 | 345.47 | 347.87 | 350.35 | 352.88
x1 = 0.3039 | 318.47 | 320.33 | 322.17 | 324.17 | 326.18 | 328.38 | 330.63 | 332.93 | 335.27
x1 = 0.3945 | 304.32 | 305.98 | 307.85 | 309.6 | 311.52 | 313.55 | 315.68 | 317.86 | 320.07
x1 = 0.4983 | 288.13 | 289.64 | 291.34 | 293.02 | 294.78 | 296.69 | 298.58 | 300.38 | 302.59
x1 = 0.6014 | 271.74 | 273.2 | 274.79 | 276.35 | 277.97 | 279.71 | 281.49 | 283.32 | 285.18
x1 = 0.6987 | 256.4 | 257.78 | 259.23 | 260.76 | 262.21 | 263.83 | 265.47 | 267.13 | 268.85
x1 = 0.7975 | 240.83 | 242.08 | 243.45 | 244.78 | 246.18 | 247.69 | 249.17 | 250.73 | 252.27
x1 = 0.9021 | 224.47 | 225.7 | 226.92 | 228.16 | 229.39 | 230.74 | 232.08 | 233.47 | 234.85
x1 = 0.9497 | 217.25 | 218.41 | 219.54 | 220.73 | 221.9 | 223.14 | 224.4 | 225.7 | 227.02
x1 = 1 | 209.65 | 210.73 | 211.89 | 212.94 | 214.06 | 215.21 | 216.38 | 217.56 | 218.76

ClCCCCCCCl [1,6-dichlorohexane] + CCCCCCCCCCCC
molar heat capacity at constant pressure [J/K/mol]
Settings | 283.15 K | 288.15 K | 293.15 K | 298.15 K | 303.15 K | 308.15 K | 313.15 K | 318.15 K | 323.15 K
x1 = 0.0498 | 361.24 | 363.25 | 365.49 | 367.75 | 370.17 | 372.73 | 375.36 | 378.07 | 380.85
x1 = 0.1003 | 354.21 | 356.2 | 358.37 | 360.64 | 363.07 | 365.53 | 368.13 | 370.69 | 373.37
x1 = 0.1497 | 347.4 | 349.35 | 351.58 | 353.74 | 356.06 | 358.52 | 361.02 | 363.62 | 366.28
x1 = 0.2527 | 333.57 | 335.52 | 337.63 | 339.74 | 341.93 | 344.27 | 346.63 | 349.13 | 351.62
x1 = 0.4017 | 314.16 | 315.92 | 317.89 | 319.79 | 321.84 | 323.95 | 326.16 | 328.4 | 330.71
x1 = 0.502 | 301.12 | 302.83 | 304.61 | 306.46 | 308.39 | 310.38 | 312.43 | 314.57 | 316.72
x1 = 0.6 | 288.34 | 289.93 | 291.62 | 293.38 | 295.19 | 297.07 | 299.01 | 300.97 | 303.01
x1 = 0.7011 | 275.07 | 276.6 | 278.22 | 279.86 | 281.55 | 283.34 | 285.15 | 287 | 288.89
x1 = 0.7986 | 262.36 | 263.83 | 265.4 | 266.9 | 268.5 | 270.16 | 271.87 | 273.6 | 275.38
x1 = 0.8998 | 249.37 | 250.76 | 252.22 | 253.67 | 255.12 | 256.63 | 258.18 | 259.77 | 261.42
x1 = 0.9493 | 242.86 | 244.24 | 245.67 | 247.09 | 248.51 | 249.99 | 251.5 | 253.03 | 254.57
x1 = 0.9691 | 240.39 | 241.75 | 243.14 | 244.52 | 245.9 | 247.38 | 248.85 | 250.37 | 251.9
x1 = 1 | 236.59 | 237.9 | 239.26 | 240.6 | 241.94 | 243.37 | 244.81 | 246.28 | 247.76
